Assay results: patent publication US12065427B2, “Heterocyclic compounds capable of activating STING” (BOEHRINGER INGELHEIM INTERNATIONAL GMBH, priority 2021, dated 2024)
Values after ≈ are worked out from the molar mass of the structure shown.

What was measured:
[1] = system: Human STING (hSTING, residues 155-341); test: Interaction with hSTING as determined by Differential Scanning Fluorimetry (DSF); assay type: binding; conditions: 100 μM test compounds, 5 μM target protein
Outline: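 Thermal shift of hSTING (residues 155-341, 5 μM) with test compounds at 100 μM in 20 mM Tris, 150 mM NaCl, pH 7.5, using 5× SYPRO Orange. Ramped 25 to 95 °C at 0.5 °C per cycle (15 s/cycle) by real-time PCR fluorescence. Tm from duplicate melting curves, averaged.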

[2] = biological target: T1, STING HAQ-variant (Homo sapiens, UniProt Q86WV6, G230A/H232R/R293Q/R71H); test: IRF-inducible SEAP reporter assay in THP1-Blue ISG cells, STING HAQ-variant; assay type: cell-based; conditions: STING HAQ-variant (parental or re-introduced), 24 hours incubation
T1 construct: parental THP1-Blue™ ISG cell lines (which express endogenously HAQ); host or cells: THP1-Blue ISG (parental, endogenous HAQ) or STING-KO clone re-transduced with HAQ (MSCV-ires-GFP-Blasti)
T1 sequence (Q86WV6 whole entry R71H/G230A/H232R/R293Q): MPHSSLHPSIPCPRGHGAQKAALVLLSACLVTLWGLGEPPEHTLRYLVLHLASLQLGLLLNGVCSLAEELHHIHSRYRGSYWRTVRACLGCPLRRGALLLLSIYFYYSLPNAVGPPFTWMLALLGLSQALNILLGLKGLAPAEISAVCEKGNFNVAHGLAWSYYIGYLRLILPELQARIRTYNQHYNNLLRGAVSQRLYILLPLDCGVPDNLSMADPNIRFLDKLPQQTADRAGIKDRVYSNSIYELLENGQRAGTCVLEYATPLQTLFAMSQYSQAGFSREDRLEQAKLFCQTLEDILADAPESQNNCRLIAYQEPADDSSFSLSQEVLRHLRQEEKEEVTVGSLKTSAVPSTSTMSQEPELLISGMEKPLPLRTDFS
Outline: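 THP1-Blue ISG cells expressing STING HAQ, either endogenously (parental) or re-introduced after CRISPR knockout, were seeded at 10000 cells/well. They received 8-point compound dilutions (0.5% DMSO final) for 24 hours at 37° C. IRF-driven SEAP was read with Quanti-Blue at OD 620 nm after 30 minutes, and EC50 came from four-parameter fits.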

[3] = biological target: T2, STING H232R-variant (Homo sapiens, UniProt Q86WV6, H232R); test: IRF-inducible SEAP reporter assay in THP1-Blue ISG cells, STING H232R-variant; assay type: cell-based; conditions: STING H232R-variant (WT), 24 hours incubation
T2 construct: expressed in transfected cells; host or cells: THP1-Blue ISG hSTING KO clone, retroviral MSCV-ires-GFP-Blasti
T2 sequence (Q86WV6 whole entry H232R): as the sequence (Q86WV6 whole entry R71H/G230A/H232R/R293Q) above, with H71R, A230G, Q293R counted along it
Outline: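 THP1-Blue ISG cells with endogenous STING deleted by CRISPR and retrovirally re-expressing human STING H232R; 8-point compound dilutions, 0.5% DMSO final, 24 h at 37 °C. SEAP read by Quanti-Blue, 30 min, OD 620 nm; EC50 and Hill slope from four-parameter fit.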

[4] = biological target: T3, STING R232H-variant (Homo sapiens, UniProt Q86WV6); test: IRF-inducible SEAP reporter assay in THP1-Blue ISG cells, STING R232H-variant; assay type: cell-based; conditions: 24 hours incubation
T3 construct: expressed in transfected cells; host or cells: THP1-Blue ISG hSTING KO clone, retroviral MSCV-ires-GFP-Blasti
T3 sequence (Q86WV6 whole entry, stated change not applied): as the sequence (Q86WV6 whole entry R71H/G230A/H232R/R293Q) above, with H71R, A230G, R232H, Q293R counted along it
Outline: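 THP1-Blue ISG cells, endogenous STING knocked out by CRISPR and re-expressing hSTING R232H, with IRF-inducible SEAP reporter. Treated 24 h at 37 °C with 8-point compound dilutions (0.5% DMSO final); SEAP read by Quanti-Blue OD 620 nm after 30 min. EC50 from four-parameter fit.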

[5] = biological target: T4, STING R293Q-variant (Homo sapiens, UniProt Q86WV6, H232R/R293Q); test: IRF-inducible SEAP reporter assay in THP1-Blue ISG cells, STING R293Q-variant; assay type: cell-based; conditions: 24 hours incubation
T4 construct: expressed in transfected cells; host or cells: THP1-Blue ISG hSTING KO clone, retroviral MSCV-ires-GFP-Blasti
T4 sequence (Q86WV6 whole entry H232R/R293Q): as the sequence (Q86WV6 whole entry R71H/G230A/H232R/R293Q) above, with H71R, A230G counted along it
Outline: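 THP1-Blue ISG cells with endogenous STING knocked out (CRISPR) and retrovirally re-expressing human STING R293Q; 10000 cells/well, compound 24 h at 37 °C, 0.5% DMSO final. SEAP read by Quanti-Blue (30 min, OD 620 nm); EC50 and Hill slope from 8-point four-parameter fit.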

[6] = biological target: T5, STING AQ-variant (Homo sapiens, UniProt Q86WV6, G230A/H232R/R293Q); test: IRF-inducible SEAP reporter assay in THP1-Blue ISG cells, STING AQ-variant; assay type: cell-based; conditions: 24 hours incubation
T5 construct: expressed in transfected cells; host or cells: THP1-Blue ISG hSTING KO clone, retroviral MSCV-ires-GFP-Blasti
T5 sequence (Q86WV6 whole entry G230A/H232R/R293Q): as the sequence (Q86WV6 whole entry R71H/G230A/H232R/R293Q) above, with H71R counted along it
Outline: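 THP1-Blue ISG cells with endogenous STING knocked out by CRISPR and re-expressing the human STING AQ variant; compounds in 8-point dilution, final DMSO 0.5%, 24 h at 37 °C. SEAP read after 30 min with Quanti-Blue as OD 620 nm; EC50 and Hill slope from four-parameter fits.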

[7] = Solubility measurements (HTS) at pH 6.8; assay type: physicochemical; conditions: kinetic from dmso stock; aqueous McIlvaine buffer pH 6.8, 24 h at room temperature, from 10 mM DMSO stock; read-out: Soblubility
Method: Aqueous solubilities were determined from 10 mM stock solutions of the compounds in DMSO diluted to a final concentration of 250 μM with aqueous McIlvaine buffer at pH 6.8, or with acetonitrile/water (1:1) as a reference. Samples were shaken for 24 h at room temperature in 96-well plates (Whatman Uniplate® 96 wells, 750 μL, polypropylene, round bottom). The plate was then centrifuged at 3,000 rpm for 2 min. 250 μL of each sample were transferred to a Millipore MultiScreenHTS filter plate with a polycarbonate membrane, pore size 0.45 μm. Filtrates were collected by centrifugation at 3,000 rpm for 2 min. The dissolved concentrations were determined by UPLC/UV (Ultra-Performance Liquid Chromatography/ultraviolet) on a Waters ACQUITY UPLC® SQD system equipped with a Waters ACQUITY UPLC® BEH 2.1×50 mm C18 column, particle size 1.7 μm, using a short gradient with water/0.1% formic acid as solvent A and acetonitrile/0.1% formic acid as solvent B (5 to 95% B with 1.7 min total cycle time). Compounds signals were measured with a photodiode array UV detector operated at 254 nm. Solubilities were determined with a one point calibration by comparing peak areas relative to the reference standard using Waters Empower software.

[8] = in vitro; conditions: human, Caco-2, pH 7.4
[9] = Cellular permeability measurements, bidirectional Caco-2 assay; conditions: human, Caco-2, pH 7.4

With `Cc1cccc2c(-c3cccc4nn(C)cc34)nn(-c3ccc(N4CCC(C(=O)O)CC4)nc3)c12` [Example #57, 1-(5-(2′,7-dimethyl-1H,2′H-[3,4′-biindazol]-1-yl)pyridin-2-yl)piperidine-4-carboxylic acid] the “thermal shift (ΔTm)” value [1] was 17 K, the EC50 [2] was 0.7 µM and the EC50 [3] was 0.2 µM. It also gave an EC50 [4] of 0.2 µM, an EC50 [5] of 0.6 µM and an EC50 [6] of 0.3 µM. The solubility kinetic at 24 h [7] was 0.08 mg/mL (≈ 171 µM), the Papp A→B at 10 μM [8] was 150 nm/s and the efflux ratio at 10 μM [8] was 1.2.
For `Cc1cccc2c(-c3cccc4nn(C)cc34)nn(-c3ccc(N4CC5C(C4)C5C(=O)O)nc3)c12` (stereo not drawn) [Example #59, 3-(5-{2′,7-dimethyl-1H,2′H-[3,4′-biindazol]-1-yl}pyridin-2-yl)-3-azabicy-clo[3.1.0]hexane-6-car-boxylic acid], the “thermal shift (ΔTm)” value [1] was 21 K, the EC50 [2] was 0.2 µM and the EC50 [3] was 0.1 µM. It also gave an EC50 [4] of 0.1 µM, an EC50 [5] of 0.2 µM and an EC50 [6] of 0.1 µM. For the same molecule, the solubility kinetic at 24 h [7] was 0.066 mg/mL (≈ 142 µM), the Papp A→B at 10 μM [8] was 110 nm/s and the efflux ratio at 10 μM [8] was 2.5.
With `Cn1cc2c(-c3nn(-c4ccc(N5CCC(C(=O)O)CC5)nc4)c4c(C(F)(F)F)cccc34)cccc2n1` [Example #67, 1-{5-[2′-methyl-7-(trifluo-romethyl)-1H,2′H-[3,4′-biindazol]-1-yl]pyridin-2-yl}piperidine-4-carboxylic acid] the “thermal shift (ΔTm)” value [1] was 23 K, the EC50 [2] was 2.2 µM and the EC50 [3] was 0.7 µM. For the same molecule, the EC50 [4] was 0.8 µM, the EC50 [5] was 2.1 µM and the EC50 [6] was 2.3 µM. It also gave a solubility kinetic at 24 h [7] of 0.082 mg/mL (≈ 158 µM), a Papp A→B at 10 μM [8] of 160 nm/s and an efflux ratio at 10 μM [8] of 1.2.
For `Cc1cccc2c(-c3cccc4nn(C)cc34)nn(-c3ccc(N4CC5(COC5)C4)nc3)c12` [compound 3, 2′,7-dimethyl-1-(6-{2-oxa-6-azaspiro[3.3]heptan-6-yl}pyridin-3-yl)-1H,2′H-3,4′-biindazole], the “thermal shift (ΔTm)” value [1] was 20 K, the EC50 [2] was 3 µM and the efflux ratio at 10 μM [9] was 0.6.
